# Source: BindingDB's records for doi:10.1021/jm030050p (Johnson & Johnson Pharmaceutical Research & Development, 2003)
# Where a name gives a salt, the structure may show the parent alone.
# Target: Trypsin (Bos taurus)
# Experiment: In vitro inhibition of bovine trypsin.
row,Ki [nM],SMILES
1,16,CC(=O)N1C[C@H](O)C[C@H]1C(=O)NC(CCCN)C(=O)c1nc2ccccc2s1 (some centres not stated) [1-Acetyl-4-hydroxy-pyrrolidine-2-carboxylic acid [4-amino-1-(benzothiazole-2-carbonyl)-butyl]-amide; TFA]
2,38,COS(=O)(=O)N1CCC[C@H]1C(=O)N[C@@H](CCCNC(=N)N)C(=O)c1nc2ccccc2s1 [2-[1-(Benzothiazole-2-carbonyl)-4-guanidino-butylcarbamoyl]-pyrrolidine-1-sulfonic acid methyl ester; TFA]
